Where a name gives a salt, the structure may show the parent alone.
Key:
Format in all cases: cell-based
Human ARPE-19 cells = assay: Expression of oxidative stress and apoptosis related genes after TBHP; conditions: 0.9 μM 24 h preincubation, 300 μM TBHP 24 h
Protocol: FIG. 2 depicts the gene expression pattern of oxidative stress related genes after tert-butyl hydroperoxide-induced cell death. Human ARPE-19 cells were preincubated ciclopirox olamine (0.9 μM) for 24 hours and then exposed to 300 μM tert-butyl hydroperoxide (TBHP) for 24 hours. […] FIG. 3 depicts apoptotic gene expression patterns after oxidative stress-induced cell death in human retinal pigment epithelial (RPE) cells. Human ARPE-19 cells were preincubated with ciclopirox olamine for 24 hours and then exposed to 300 μM tert-butyl hydroperoxide (TBHP) for 24 hours. […] The expression levels of genes related to oxidative stress were identified after exposure to TBHP for 24 hours (FIG. 2).

[1] = tested on: Human lens epithelial cells; assay: TBHP-induced cell death in lens epithelial cells; conditions: lens epithelial cells (FIG. 19); 0.9 μM 24 h, then 300 μM TBHP 24 h
Protocol: Immortalized human lens epithelial cells (CRL-11421) obtained from the American Type Culture Collection (ATCC, Manassas, VA, USA) were cultured in Eagle's minimum essential media (EMEM, ATCC) containing 10% fetal bovine serum (FBS), 100 IU/mL penicillin, 100 μg/mL streptomycin, 100 μg/mL gentamicin, and 2.5 μg/mL amphotericin B (Thermo Fisher Scientific). Human ARPE-19 cells were plated in 96-well plates for 24 hours in DMEM supplemented with FBS and antibiotics. ARPE-19 cells were preincubated with either ciclopirox olamine (Sigma), compound 414 (Chemical Diversity, San Diego, CA), compound 434 (Chemical Diversity) or no compound for 24 hours and then exposed to varying concentrations of tert-butyl hydroperoxide (TBHP; Sigma-Aldrich, St. Louis, MO) the next day for 24 hours. Cell viability was measured the following day by […] cell viability assay (Promega, Madison, WI) using a BioTek FLX800TM fluorescence reader (BioTek Winooski, VT). […] Protective effect of 0.9 μMciclopirox olamine on lens epithelial cells exposed to 300 μMTBHP.

[2] = tested on: Human iPSC-derived RPE cells; assay: Mitochondrial respiration (Seahorse XF) after TBHP in iPSC-derived RPE

**Q.** Which results are given for `Cc1cc(C2CCCCC2)n(O)c(=O)c1` [ciclopirox olamine, 6-cyclohexyl-1-hydroxy-4-methyl-2(1H)-pyridone, ethanolamine salt, reference compound]?
**A.** expression of genes related to anti-oxidative stress (Human ARPE-19 cells): elevated; expression of genes related to oxidative stress (Human ARPE-19 cells): reduced; gene expression of Bax (Human ARPE-19 cells): reduced; gene expression of caspase 8 (Human ARPE-19 cells): reduced; cell viability after exposure to TBHP [1]: significantly increases cell viability; mitochondrial function, treatment alone ([2]; iPSC-derived RPE treated with ciclopirox olamine alone): improved; protection from oxidative stress-induced cell death ([2]; iPSC-derived RPE, TBHP 24 h): protects
